Results on one compound are retold here after ChEMBL document CHEMBL1144826, “Selective vasodilatation effect of sargahydroquinoic acid, an active constituent of Sargassum micracanthum, on the basilar arteries of rabbits” (Bioorg Med Chem Lett, 2008).

By EC50 is commonly meant the concentration needed to bring the measured effect to its halfway point. A low value points to higher potency in that assay.

The nature of assay [1]: Selectivity index, ratio of EC50 for vasodialative effect on high K+-induced vasoconstriction in rabbit carotid artery to basilar artery. It counts as functional, Oryctolagus cuniculus.
The nature of assay [2]: Vasodialative effect on high K+-induced vasoconstriction in rabbit carotid artery. The assay is classed as functional, Oryctolagus cuniculus.
Assay [3] in a line: Vasodialative effect on high K+-induced vasoconstriction in rabbit basilar artery. The assay is classed as functional, tissue-based, Oryctolagus cuniculus.

On to `CC(C)=CCC/C(=C/CC/C(C)=C/CC/C(C)=C/Cc1cc(O)cc(C)c1O)C(=O)O` [SARGAHYDROQUINOIC ACID], for which the “Ratio EC50” value in assay [1] worked out at 11.9. The EC50 in assay [2] came to 140 µM; in assay [3], 11.8 µM.
